In ChEMBL document CHEMBL3785034, “New isosteroidal alkaloids with tracheal relaxant effect from the bulbs of Fritillaria pallidiflora Schrenk” (Bioorg Med Chem Lett, 2016):

Experiments:
Trachea [1] = test: Inhibition of KCl-induced contraction in Sprague-Dawley rat trachea assessed as tracheal tension at 10^-6 mol/L (reference value: 2.16 to 2.59 g); assay type: functional
Trachea [2] = test: Inhibition of Ach-induced contraction in Sprague-Dawley rat trachea assessed as tracheal tension at 10^-5 mol/L (reference value: 0.63 to 0.98 g); assay type: functional
Trachea [3] = test: Inhibition of Ach-induced contraction in Sprague-Dawley rat trachea assessed as maximal diastolic rate at 10^-9 mol/L (reference value: 12.7 +/- 2.8%); assay type: functional; design: scale not given: the % may be the effect or the level left
Trachea [4] = test: Inhibition of KCl-induced contraction in Sprague-Dawley rat trachea assessed as maximal diastolic rate at 10^-4 mol/L (reference value: 6.6 +/- 0.3%); assay type: functional; design: scale not given: the % may be the effect or the level left
Trachea [5] = test: Inhibition of KCl-induced contraction in Sprague-Dawley rat trachea assessed as maximal diastolic rate at 10^-8 mol/L (reference value: 7 +/- 0.3%); assay type: functional; design: scale not given: the % may be the effect or the level left
Trachea [6] = test: Inhibition of KCl-induced contraction in Sprague-Dawley rat trachea assessed as maximal diastolic rate at 10^-6 mol/L (reference value: 6 +/- 1.2%); assay type: functional; design: scale not given: the % may be the effect or the level left
Trachea [7] = test: Inhibition of KCl-induced contraction in Sprague-Dawley rat trachea assessed as tracheal tension at 10^-9 mol/L (reference value: 2.16 to 2.59 g); assay type: functional
Trachea [8] = test: Inhibition of Ach-induced contraction in Sprague-Dawley rat trachea assessed as tracheal tension at 10^-6 mol/L (reference value: 0.63 to 0.98 g); assay type: functional
Trachea [9] = test: Inhibition of Ach-induced contraction in Sprague-Dawley rat trachea assessed as maximal diastolic rate at 10^-7 mol/L (reference value: 14.2 +/- 2.3%); assay type: functional; design: scale not given: the % may be the effect or the level left
Trachea [10] = test: Inhibition of Ach-induced contraction in Sprague-Dawley rat trachea assessed as maximal diastolic rate at 10^-8 mol/L (reference value: 14 +/- 1.8%); assay type: functional; design: scale not given: the % may be the effect or the level left
Trachea [11] = test: Inhibition of Ach-induced contraction in Sprague-Dawley rat trachea assessed as maximal diastolic rate at 10^-4 mol/L (reference value: 15 +/- 4.2%); assay type: functional; design: scale not given: the % may be the effect or the level left
Trachea [12] = test: Inhibition of Ach-induced contraction in Sprague-Dawley rat trachea assessed as tracheal tension at 10^-7 mol/L (reference value: 0.63 to 0.98 g); assay type: functional
Trachea [13] = test: Inhibition of Ach-induced contraction in Sprague-Dawley rat trachea assessed as maximal diastolic rate at 10^-5 mol/L (reference value: 15.9 +/- 2.6%); assay type: functional; design: scale not given: the % may be the effect or the level left
Trachea [14] = test: Inhibition of KCl-induced contraction in Sprague-Dawley rat trachea assessed as tracheal tension at 10^-8 mol/L (reference value: 2.16 to 2.59 g); assay type: functional
Trachea [15] = test: Inhibition of KCl-induced contraction in Sprague-Dawley rat trachea assessed as tracheal tension at 10^-7 mol/L (reference value: 2.16 to 2.59 g); assay type: functional
Trachea [16] = test: Inhibition of Ach-induced contraction in Sprague-Dawley rat trachea assessed as maximal diastolic rate at 10^-6 mol/L (reference value: 15.9 +/- 3%); assay type: functional; design: scale not given: the % may be the effect or the level left
Trachea [17] = test: Inhibition of KCl-induced contraction in Sprague-Dawley rat trachea assessed as maximal diastolic rate at 10^-7 mol/L (reference value: 7 +/- 0.8%); assay type: functional; design: scale not given: the % may be the effect or the level left
Trachea [18] = test: Inhibition of Ach-induced contraction in Sprague-Dawley rat trachea assessed as tracheal tension at 10^-9 mol/L (reference value: 0.63 to 0.98g); assay type: functional
Trachea [19] = test: Inhibition of KCl-induced contraction in Sprague-Dawley rat trachea assessed as tracheal tension at 10^-4 mol/L (reference value: 2.16 to 2.59 g); assay type: functional
Trachea [20] = test: Inhibition of Ach-induced contraction in Sprague-Dawley rat trachea assessed as tracheal tension at 10^-8 mol/L (reference value: 0.63 to 0.98 g); assay type: functional
Trachea [21] = test: Inhibition of Ach-induced contraction in Sprague-Dawley rat trachea assessed as tracheal tension at 10^-4 mol/L (reference value: 0.63 to 0.98 g); assay type: functional
Trachea [22] = test: Inhibition of KCl-induced contraction in Sprague-Dawley rat trachea assessed as maximal diastolic rate at 10^-9 mol/L (reference value: 5.9 +/- 1.8%); assay type: functional; design: scale not given: the % may be the effect or the level left
Trachea [23] = test: Inhibition of KCl-induced contraction in Sprague-Dawley rat trachea assessed as tracheal tension at 10^-5 mol/L (reference value: 2.16 to 2.59 g); assay type: functional
Trachea [24] = test: Inhibition of KCl-induced contraction in Sprague-Dawley rat trachea assessed as maximal diastolic rate at 10^-5 mol/L (reference value: 6 +/- 0.6%); assay type: functional; design: scale not given: the % may be the effect or the level left
Trachea [25] = test: Inhibition of Ach-induced contraction in Sprague-Dawley rat trachea at 1 to 100 umol/L; assay type: functional, tissue-based; details: read-out: pA2 (converted)
Trachea [26] = test: Inhibition of Ach-induced contraction in Sprague-Dawley rat trachea; assay type: functional, tissue-based

Row | SMILES | Activity (Trachea [1]) | Activity (Trachea [2]) | Activity (Trachea [3]) | Activity (Trachea [4]) | Activity (Trachea [5]) | Activity (Trachea [6]) | Activity (Trachea [7]) | Activity (Trachea [8]) | Activity (Trachea [9]) | Activity (Trachea [10]) | Activity (Trachea [11]) | Activity (Trachea [12]) | Activity (Trachea [13]) | Activity (Trachea [14]) | Activity (Trachea [15]) | Activity (Trachea [16]) | Activity (Trachea [17]) | Activity (Trachea [18]) | Activity (Trachea [19]) | Activity (Trachea [20]) | also measured
1 | C[C@@H]1CN[C@H]2[C@@H](C)[C@@]3(CC[C@]4(O)[C@@H]5CC(=O)[C@H]6C[C@@H](O)CC[C@]6(C)[C@H]5C[C@]45O[C@]53C)O[C@@H]2C1 | 2.39 g | 0.5 g | 15.2% | 2.1% | 5.1% | 4.5% | 2.34 g | 0.52 g | 23% | 18.3% | 23.4% | 0.53 g | 30.2% | 2.37 g | 2.36 g | 27.1% | 5.6% | 0.56 g | 2.45 g | 0.55 g | Activity (Trachea [21]): 0.53 g; Activity (Trachea [22]): 6.3%; Activity (Trachea [23]): 2.42 g; Activity (Trachea [24]): 3.3%
2 | COC(=O)C1=C(C)NC(C)=C(C(=O)OC)C1c1ccccc1[N+](=O)[O-] [NIFEDIPINE] | – | – | – | – | – | – | – | – | – | – | – | – | – | – | – | – | – | – | – | – | Kb (Trachea [25]): 6.03 µM; EC50 (Trachea [26]): 6.5 µM
3 | C[C@H]1CC[C@@H]2N(C1)C[C@H]1[C@@H]3C[C@H]4[C@@H](CC(=O)[C@H]5C[C@@H](O[C@@H]6O[C@H](CO)[C@@H](O)[C@H](O)[C@H]6O)CC[C@@]54C)[C@@H]3CC[C@H]1[C@]2(C)O | 2.45 g | 0.71 g | 12.6% | 3% | 5.2% | 5.3% | 2.4 g | 0.74 g | 17.7% | 15.2% | 129.3% | 0.76 g | 22.7% | 2.45 g | 2.45 g | 20.5% | 5.2% | 0.81 g | 2.52 g | 0.78 g | Activity (Trachea [21]): -0.13 g; Activity (Trachea [22]): 7.5%; Activity (Trachea [23]): 2.47 g; Activity (Trachea [24]): 4.5%
4 | C[C@H]1CC[C@@H]2N(C1)C[C@H]1[C@@H]3C[C@H]4[C@@H](CC(=O)[C@H]5C[C@@H](O)CC[C@@]54C)[C@@H]3CC[C@H]1[C@]2(C)O [IMPERIALINE] | 2.43 g | 0.49 g | 14.5% | 7.2% | 6.3% | 6.4% | 2.44 g | 0.5 g | 35.3% | 28.1% | 50.7% | 0.52 g | 45.7% | 2.43 g | 2.44 g | 40.4% | 6% | 0.58 g | 2.41 g | 0.55 g | Kb (Trachea [25]): 0.00389 µM; Activity (Trachea [21]): 0.48 g; EC50 (Trachea [26]): 4.4 µM; Activity (Trachea [22]): 5.7%; Activity (Trachea [23]): 2.42 g; Activity (Trachea [24]): 6.8%
5 | C[C@H]1CC[C@H]2[C@@](C)(O)[C@@H]3CC[C@@H]4[C@@H](C[C@H]5[C@H]4CC(=O)[C@H]4C[C@@H](O)CC[C@@]45C)[C@@H]3C[N+]2([O-])C1 (stereo partly specified) | 2.32 g | 0.58 g | 15.6% | 5.7% | 6.9% | 5.5% | 2.3 g | 0.57 g | 27% | 17.2% | 31.3% | 0.56 g | 21.6% | 2.29 g | 2.3 g | 25.8% | 6.7% | 0.61 g | 2.31 g | 0.6 g | Activity (Trachea [21]): 0.55 g; Activity (Trachea [22]): 6.4%; Activity (Trachea [23]): 2.31 g; Activity (Trachea [24]): 6.1%
6 | C[C@H]1CC[C@H]2N(C1)C[C@H]1[C@@H]3C[C@H]4[C@@H](CC(=O)[C@H]5C[C@@H](O[C@@H]6O[C@H](CO)[C@@H](O)[C@H](O)[C@H]6O)CC[C@@]54C)[C@@H]3CC[C@@H]1[C@@]2(C)O | 2.34 g | 0.83 g | 12.2% | 8.3% | 6.2% | 7.5% | 2.33 g | 0.84 g | 14.9% | 13.8% | 15.6% | 0.83 g | 15.9% | 2.37 g | 2.36 g | 15% | 6.4% | 0.85 g | 2.33 g | 0.84 g | Kb (Trachea [25]): 2.63 µM; Activity (Trachea [21]): 0.84 g; EC50 (Trachea [26]): 3 µM; Activity (Trachea [22]): 7.8%; Activity (Trachea [23]): 2.37 g; Activity (Trachea [24]): 6.4%
7 | C[C@H]1CC[C@H]2[C@@H](C)[C@H]3CC[C@@H]4[C@@H](C[C@H]5[C@H]4CC(=O)[C@H]4C[C@@H](O)CC[C@@]45C)[C@@H]3CN2C1 | 2.2 g | 0.55 g | 12.2% | 2.9% | 5.3% | 3.2% | 2.16 g | 0.55 g | 17.9% | 16.3% | 20.9% | 0.56 g | 19.5% | 2.18 g | 2.2 g | 19.8% | 3.9% | 0.59 g | 2.21 g | 0.56 g | Activity (Trachea [21]): 0.54 g; Activity (Trachea [22]): 5.7%; Activity (Trachea [23]): 2.2 g; Activity (Trachea [24]): 3.2%
8 | Cn1c(=O)c2[nH]cnc2n(C)c1=O [AMINOPHYLLINE] | – | – | – | – | – | – | – | – | – | – | – | – | – | – | – | – | – | – | – | – | Kb (Trachea [25]): 0.0479 µM; EC50 (Trachea [26]): 0.05 µM
9 | Cc1c([C@H](C)[C@@H]2NC[C@@H](C)C[C@H]2O)ccc2c1C[C@H]1[C@H]2CC(=O)[C@H]2C[C@@H](O)CC[C@@]21C | 2.2 g | 0.48 g | 13.6% | 13.9% | 4.8% | 7.2% | 2.23 g | 0.5 g | 18.9% | 16% | 115.2% | 0.52 g | 24.5% | 2.25 g | 2.22 g | 21.3% | 6.1% | 0.54 g | 2.04 g | 0.53 g | Activity (Trachea [21]): -0.11 g; Activity (Trachea [22]): 5.7%; Activity (Trachea [23]): 2.18 g; Activity (Trachea [24]): 8%
